Data set [1] concerns the target T1, hCXCR4-GFP (Homo sapiens, UniProt P61073). Nature of the data set: Intracellular calcium mobilization assay, hCXCR4-GFP expressing 300.19 cells, CXCL12. The class given is cell-based. More on the design: IC50 of intracellular calcium mobilization, CXCR4; other: CXCL12-mediated; other: 50 μM test compound; normalized Δ fluorescence (CXCR4, intracellular calcium mobilization); other: 50 μM test compound, 60 seconds pretreatm. Conditions: for normalized Δ fluorescence (CXCR4, intracellular calcium mobilization): 50 μM test compound, 60 seconds pretreatment, optimized CXCL12 (AMD3100 concentration not given); for IC50: CXCL12-mediated, read-out: IC50 of intracellular calcium mobilization, CXCR4. How it is done:
(§1) Intracellular Calcium Mobilization Assay Method: The intracellular calcium mobilization assay used 300.19 cells which stably expressed hCXCR4-GFP, as described previously in Pello et al. (2008). Cells were loaded with INDO-I and then pretreated with the 50 μM of the test compound for 60 seconds prior to stimulation of intracellular calcium mobilization with an optimized concentration of CXCL12. […] The value Δ florescence is the difference between (a) the fluorescence ratio from cells before exposure to CXCL12 at its optimized concentration and (b) the fluorescence ratio from cells following stimulation with the optimized concentration of CXCL12. Decreases in Δ florescence correspond to decreases in intracellular calcium mobilization, and therefore, decreased signaling. As CXCL12 concentration was optimized for each test compound, results are presented as normalized Δ florescence which is Δ fluorescence divided by the fluorescence ratio of optimized CXCL12-only stimulation. In some instances, the IC50 concentration (concentration at which intracellular calcium mobilization is reduced to 50% of the Δ fluorescence of the CXCL12 plus DMSO control) of the test compounds was determined. All assays were performed a minimum of four times; error bars represent the standard deviation of the mean.
On the technique in general: Calcium flux is commonly read through the fluorescence of an indicator in the cells.

Data set [2] has as its system TC-1 tumor cells. In kind it is in vivo. To be noted: 5 mg/kg i.p. every day for 21 days; versus PBS or Vehicle controls. The source says: Development of Animal Model for CXCR4 Dependent Cancer Metastasis in Lungs: To establish a CXCR4 dependent lung tumor metastasis model, we first screened several cancer cell lines that are known to metastasize to lungs in mice models to determine which cancer cell lines endogenously express CXCR4 receptor. The mice cell lines screened were Lewis lung carcinoma, B16F10 melanoma, and TC-1 cervical carcinoma. Mice cell lines were screened using flow cytometry-based surface receptor staining using a fluorochrome labeled antibody to mouse CXCR4 receptor. […] The TC-1 cell line was generated by transfection of murine lung squamous epithelial cells by Human pappillomavirus (HPV) oncogenes E6, E7, and activated Ras.
5 mg/kg body weight of AMD3100, I-28, I-36, or I-38 were also injected at the same dose intra-peritoneal (i.p.) every day for 21 days starting from the day before the tumor cell injection. Mice were sacrificed and lungs were perfused and collected on day 21 post tumor challenge. Lungs were stored in formalin for 16 hrs and then transferred into 70% ethanol until the lung lobes became lucid. All five lung lobes were separated. Tumors were counted using a magnifying glass or a microscope. Tumor sizes were measured using a digital caliper. The total number of tumors counted in all five lung lobes of an individual mouse is reported as the tumor incidence. Mean tumor sizes were added together to calculate cumulative tumor size, which is reported as the tumor burden for each mouse.

Data set [3] addresses T1, hCXCR4-GFP. Nature of the data set: Chemotaxis assay, hCXCR4-GFP expressing 300.19 cells, CXCL12. The class given is cell-based. Conditions: concentrations ranging from 50 nM to 100 nM; data not shown. How it is done: (§2) Cells were suspended in chemotaxis buffer (RPMI 1640, 1% fetal bovine serum, 1 mM HEPES) at a concentration of 1×10^7 cells per ml. Cell chemotaxis was determined by examining the migration of the 300.19 cells in response to administration of 50 μM test compound plus an optimized concentration of CXCL12 using a chemotaxis assay that was previously described in Basu et al. (Basu et al., Critical role for polar residues in coupling leukotriene B4 binding to signal transduction in BLT1, J. Biol. Chem. (2007) Vol. 282, pp. 10005-17). 100 μL of 300.19 cells from the above cell suspension were placed in the upper chamber of a Transwell support (Corning Costar, Cambridge, Mass.) and were separated by a 5 micron filter from a bottom chamber containing 50 μM test compound plus the optimized concentration of CXCL12 in a final bottom chamber volume of 600 μl. After 3 h of incubation at 37° C. in 5% CO2, the upper chamber was removed and cells in the lower chamber were counted in a Bürker chamber. Cell counts for all samples were normalized to a CXCL12 plus DMSO control and results are reported using this normalized measure, referred to herein as the chemotaxis index. In some instances, the IC50 concentration (i.e., the concentration at which the chemotaxis index is reduced to 50% of the chemotaxis index of the CXCL12 plus DMSO control) of the test compounds was determined. All assays were performed a minimum of four times; error bars represent the standard deviation of the mean.

The target of data set [4] is BLT1 (Homo sapiens, UniProt Q15722). Nature of the data set: Intracellular calcium mobilization assay, cells expressing BLT1, LTB4. Conditions: for IC50: LTB4-mediated; for normalized Δ fluorescence (BLT1, intracellular calcium mobilization): 50 μM test compound, LTB4. In kind it is cell-based. How it is done: as §1
At 50 μM test compound concentrations in BLT1-expressing cells, I-44 (0.040) and I-46 (0.017) inhibited intracellular calcium mobilization.

The subject of data set [5] is hCXCR4-GFP. Put plainly: Intracellular calcium mobilization assay, hCXCR4-GFP expressing 300.19 cells, CXCL12. The class given is cell-based, human. Conditions: for difference between CXCR4- and BLT1-mediated intracellular calcium mobilization: 50 μM test compound. How it is done: as §1
Data set [6] has as its system 300.19 cells. Put plainly: Cytotoxicity assay, propidium iodide based flow cytometry. In kind it is cell-based. Conditions: for cytotoxicity, percentage of cells staining positive for PI: 50 μM test compound. The method, then:
Cytotoxicity Assay Method: To determine the potential for test compound cytotoxicity to influence cell intracellular calcium mobilization and chemotaxis, cell cytotoxicity was assessed using propidium iodide (PI) based flow cytometry. Propidium iodine is impermeable to intact cell membranes and thus its lack of intercalation into DNA (which increases PI fluorescence) is a positive indicator of cell viability. Cytotoxicity values are presented as percentage of cells staining positive for PI. Lower values of fluorescence indicate less cytotoxicity. All assays were performed a minimum of four times; error bars represent the standard deviation of the mean.

In data set [7] the test system is hCXCR4-GFP. Nature of the data set: Chemotaxis assay, hCXCR4-GFP expressing 300.19 cells, CXCL12. Conditions: 50 μM test compound. The class given is cell-based, human. The method, then: as §2

“Also recorded” adds a separate entry of the source.

Data on 15 compounds can be found in patent publication US9145398B2, “Methods of treating CXCR4-expressing cancers” (University of Louisville Research Foundation, Inc., priority 2010, dated 2015).

A word on the IC50: it is the concentration at which inhibition is half-maximal.

T1 sequence (P61073 whole entry): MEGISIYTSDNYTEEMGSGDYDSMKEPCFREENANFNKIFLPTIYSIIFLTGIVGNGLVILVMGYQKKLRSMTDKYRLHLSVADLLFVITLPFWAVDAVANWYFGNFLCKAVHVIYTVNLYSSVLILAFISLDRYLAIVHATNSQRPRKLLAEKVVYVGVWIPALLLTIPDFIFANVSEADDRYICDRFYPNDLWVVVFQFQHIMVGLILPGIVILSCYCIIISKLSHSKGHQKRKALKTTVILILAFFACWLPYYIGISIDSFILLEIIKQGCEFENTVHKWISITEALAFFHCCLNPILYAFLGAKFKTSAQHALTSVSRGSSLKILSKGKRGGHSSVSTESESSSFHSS
BLT1, sequence (Q15722 whole entry, species assumed): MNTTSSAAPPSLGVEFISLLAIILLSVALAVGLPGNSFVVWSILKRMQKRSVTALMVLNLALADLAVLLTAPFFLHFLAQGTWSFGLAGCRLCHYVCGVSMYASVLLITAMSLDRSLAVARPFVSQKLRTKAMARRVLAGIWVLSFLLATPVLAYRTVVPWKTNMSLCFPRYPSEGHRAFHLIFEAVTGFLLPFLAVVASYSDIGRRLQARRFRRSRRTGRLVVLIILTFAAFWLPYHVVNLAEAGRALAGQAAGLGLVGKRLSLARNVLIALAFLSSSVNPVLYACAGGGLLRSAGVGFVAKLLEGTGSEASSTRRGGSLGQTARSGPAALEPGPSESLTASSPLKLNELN

As for `c1cc(CN2CCCNCCNCCCNCC2)ccc1CN1CCCNCCNCCCNCC1` [AMD3100, reference compound], the “normalized Δ fluorescence (CXCR4, intracellular calcium mobilization)” value in data set [1] is 0.51. Moreover, the “TC-1 metastatic tumor incidence and burden in lungs” value in data set [2] was “reduced mice TC-1 metastatic tumor incidence and burden in lungs; also recorded: metastasis of TC-1 was significantly inhibited”. Further, the inhibition of chemotaxis result in data set [3] is “completely inhibited”.

Regarding `C(=C\N1CCCC1)/c1nnnn1-c1ccc2ccccc2c1` [Compound I-2, 1-(2-naphthyl)-5-(2-pyrrolidin-1-ylvinyl)tetrazole], in data set [4], the concentration for half-maximal inhibition (IC50) amounted to 40 µM. The IC50 in data set [1] is 45 µM. Further, the “difference between CXCR4- and BLT1-mediated intracellular calcium mobilization” value in data set [5] is listed as “no significant difference”. Also, in data set [6], the “cytotoxicity at 10 μM” value was “retained cytotoxicity” and the “cytotoxicity, percentage of cells staining positive for PI” value (from here on “cytotoxicity, percentage”) stood at 63.5%.

For `CCc1ccc(OCCNc2cc(N3CCNC(C)C3)ccc2[N+](=O)[O-])cc1` (centres unmarked) [Compound I-4, N-[2-(4-ethylphenoxy)ethyl]-5-(3-methylpiperazin-1-yl)-2-nitro-aniline], the IC50 in data set [4] was determined as 40 µM; in data set [1] it was 45 µM. The “difference between CXCR4- and BLT1-mediated chemotaxis” value in data set [7] is “small differences”. Also, the “difference between CXCR4- and BLT1-mediated intracellular calcium mobilization” value in data set [5] is on record as “no significant difference”. In addition, the “cytotoxicity at 5 μM” value in data set [6] (5 μM) is given as “maintained cytotoxicity”. Besides, the “cytotoxicity, percentage” value in data set [6] was 98.8%.

As for `N=c1n(CCN2CCCCC2)c2ccccc2n1CC(O)COc1ccc(Cl)cc1` (centres unmarked) [Compound I-5, 1-(4-chlorophenoxy)-3-[2-imino-3-[2-(1-piperidyl)ethyl]benzoimidazol-1-yl]-propan-2-ol], in data set [7], the “difference between CXCR4- and BLT1-mediated chemotaxis” value was “small differences”.

Turning to `C=C(C)C1CC=C(CN(CCCN(C)C)CCCN(C)C)CC1` (centres unmarked) [Compound I-6, N-(3-dimethylaminopropyl)-N-[(4-isopropenyl-1-cyclohexenyl)methyl]-N′,N′-dimethyl-propane-1,3-diamine], the “difference between CXCR4- and BLT1-mediated chemotaxis” value in data set [7] is “small differences”.

Turning to `COc1ccc(NCc2nc3ccccc3n2CCOc2ccccc2C)cc1` [Compound I-7, N-((1-(2-(o-tolyloxy)ethyl)-1H-benzo[d]imidazol-2-yl)methyl)-4-methoxybenzenamine], in data set [6], the “cytotoxicity at 10 μM” value is listed as “retained cytotoxicity” and the “cytotoxicity, percentage” value is 53.4%.

`CCOc1ccc(NCc2nc3ccccc3n2CCOc2ccccc2)cc1` [Compound I-8, 4-ethoxy-N-((1-(2-phenoxyethyl)-1H-benzo[d]imidazol-2-yl)methyl)benzenamine]: in data set [7], the “difference between CXCR4- and BLT1-mediated chemotaxis” value is on record as “small differences”.

For `COc1ccccc1C(=O)OCCNc1nc2cc(C)cc(C)c2cc1C#N` [Compound I-12, 2-[(3-cyano-5,7-dimethyl-2-quinolyl)amino]ethyl 2-methoxybenzoate], the figures for the IC50 in data set [4] and in data set [1] were 2.5 µM and 5 µM, respectively. For the same compound, in data set [5], the “difference between CXCR4- and BLT1-mediated intracellular calcium mobilization” value was “no significant difference”.

As for `CCC(=O)NCCNc1nc2cc(C)cc(C)c2cc1C#N` [Compound I-13, N-[2-[(3-cyano-5,7-dimethyl-2-quinolyl)amino]ethyl]propanamide], the figures for the IC50 in data set [4] and in data set [1] were 2.5 µM and 5 µM, respectively. Moreover, the “difference between CXCR4- and BLT1-mediated intracellular calcium mobilization” value in data set [5] is on record as “no significant difference”.

Take `CCOc1ccc(NCC(O)Cn2c3ccccc3n3c(=O)cc(C)c(C#N)c23)cc1` (centres unmarked) [Compound I-15, 5-[3-[(4-ethoxyphenyl)amino]-2-hydroxypropyl]-1,5-dihydro-3-methyl-1-oxo-pyrido[1,2-a]benzimidazole-4-carbonitrile]: in data set [4], the “normalized Δ fluorescence (BLT1, intracellular calcium mobilization)” value is listed as 0.16 and the IC50 came out at 30 µM. Also, in data set [1], the “normalized Δ fluorescence (CXCR4, intracellular calcium mobilization)” value was found to be 0.45 and the IC50 amounted to 50 µM. For the same compound, the “fold greater inhibition of CXCR4-mediated than BLT1-mediated intracellular calcium mobilization” value in data set [5] (from normalized Δ fluorescence) is reported as around 3 fold.

For the compound `CCOc1ccc(NCC(O)Cn2c3ccccc3c3ccccc32)cc1` (centres unmarked) [Compound I-16, 1-carbazol-9-yl-3-(4-ethoxyphenyl)amino-propan-2-ol], the 50% inhibitory concentration (IC50) in data set [4] was 30 µM. The IC50 in data set [1] came out at 35 µM. In data set [7], the “difference between CXCR4- and BLT1-mediated chemotaxis” value is given as “small differences”. Also, in data set [6], the “cytotoxicity at 10 μM” value is recorded as “retained cytotoxicity” and the “cytotoxicity, percentage” value amounted to 67.9%.

For `CCOC(=O)c1c(C)[nH]c(C(=O)COC(=O)c2c(-c3ccccc3)noc2C)c1C` [Compound I-32, [2-(4-ethoxycarbonyl-3,5-dimethyl-1H-pyrrol-2-yl)-2-oxo-ethyl]5-methyl-3-phenyl-isoxazole-4-carboxylate], in data set [7], the “difference between CXCR4- and BLT1-mediated chemotaxis” value is given as “small differences”.

`COC(=O)c1ccc(NC(=O)c2ccc3nc(-c4ccccn4)c(-c4ccccn4)nc3c2)cc1` [Compound I-39, methyl 4-(2,3-di(pyridin-2-yl)quinoxaline-6-carboxamido)benzoate]: the “normalized Δ fluorescence (CXCR4, intracellular calcium mobilization)” value in data set [1] is 0.31.

Turning to `O=C(/C=C/c1ccccc1)NC(=S)Nc1cccc(-c2nc3ncccc3o2)c1` [Compound I-40, 1-(3-(oxazolo[4,5-b]pyridin-2-yl)phenyl)-3-((E)-3-phenylacryloyl)thiourea], the “cytotoxicity, percentage” value in data set [6] is 88.3%.

Regarding `COc1ccc(-c2cc(-c3ccccc3)cc3sc(/C(N)=N\C#N)c(N)c23)cc1` [Compound I-44, (E)-3-amino-N′-cyano-4-(4-methoxyphenyl)-6-phenylbenzo[b]thiophene-2-carboxamidine], in data set [4], the “normalized Δ fluorescence (BLT1, intracellular calcium mobilization)” value is on record as 0.040. The “normalized Δ fluorescence (CXCR4, intracellular calcium mobilization)” value in data set [1] is reported as 0.29. In addition, the “cytotoxicity, percentage” value in data set [6] is recorded as 99.8%.
